What was measured:
Format in all cases: biochemical
[1] = molecular target: T1, myeloperoxidase (MPO) (Homo sapiens (Human), UniProt P05164); assay: MPO chlorination assay (APF assay)
[2] = molecular target: T1, myeloperoxidase (MPO); assay: MPO peroxidation assay (Amplex Red assay)
[3] = molecular target: eosinophil peroxidase (EPX) (Homo sapiens (Human), UniProt P11678); assay: EPX bromination assay
Method: [formula] where A=minimal Y value (activity level of inhibited sample), B=maximal Y value (activity level of uninhibited sample), C=Log IC50, D=Hill Slope, x=concentration of inhibitor. EPX Bromination Assay
EPX bromination activity was measured in 100 mM KPi (pH 7.4) by monitoring the H2O2 catalyzed formation of 3-bromo tyrosine from tyrosine and potassium bromide. A 50 μl mixture of 0.6 μM EPX (Lee Biosolutions Cat#342-60) was added to 100 nL inhibitor in 100% DMSO in a 384 well REMP plate. Enzyme and compound were preincubated for ten minutes at room temperature.
After the ten minute preincubation of enzyme and inhibitor, 25 μL of a mixture containing 400 μM tyrosine and 1200 μM potassium bromide was added to the plate containing enzyme and inhibitor, followed by the addition of 25 μl of 20 μM H2O2. The reaction was allowed to proceed for 15 minutes, at which time it was quenched with 10 μL of 20% TCA. The final concentrations of all components were 0.3 μM EPX, 100 μM tyrosine, […], 5 μM H2O2, 0.1% DMSO, 2.0% TCA.
IC50 values were determined by determining the peak areas of 3-bromo-tyrosine present at the end of the 15 minute reaction and fitting the data to:
[formula] where A=minimal Y value (activity level of inhibited sample), B=maximal Y value (activity level of uninhibited sample), C=Log IC50, D=Hill Slope, x=concentration of inhibitor.
Reversed-phase analysis was performed on a Waters Acquity Ultra Performance LC system using an Acquity UPLC BEH C18 […], 2.1×50 mm analytical column. The column was maintained at 60° C. Samples were eluted using a gradient of 0%-100% B over 2.5 minutes, followed by equilibration with 100% A for 1 minute where A consisted of 0.1% TFA and B consisted of 90% MeOH/0.1% TFA at a flow rate of 0.6 ml/min. The retention time of 3-bromo tyrosine was 1.22 min.

[4] = MPO chlorination, potency range class, read-out: APF Assay IC50 value
[5] = MPO peroxidation, potency range class, read-out: Amplex Red Assay IC50 value

Sequence of eosinophil peroxidase (EPX) (P11678 140-715): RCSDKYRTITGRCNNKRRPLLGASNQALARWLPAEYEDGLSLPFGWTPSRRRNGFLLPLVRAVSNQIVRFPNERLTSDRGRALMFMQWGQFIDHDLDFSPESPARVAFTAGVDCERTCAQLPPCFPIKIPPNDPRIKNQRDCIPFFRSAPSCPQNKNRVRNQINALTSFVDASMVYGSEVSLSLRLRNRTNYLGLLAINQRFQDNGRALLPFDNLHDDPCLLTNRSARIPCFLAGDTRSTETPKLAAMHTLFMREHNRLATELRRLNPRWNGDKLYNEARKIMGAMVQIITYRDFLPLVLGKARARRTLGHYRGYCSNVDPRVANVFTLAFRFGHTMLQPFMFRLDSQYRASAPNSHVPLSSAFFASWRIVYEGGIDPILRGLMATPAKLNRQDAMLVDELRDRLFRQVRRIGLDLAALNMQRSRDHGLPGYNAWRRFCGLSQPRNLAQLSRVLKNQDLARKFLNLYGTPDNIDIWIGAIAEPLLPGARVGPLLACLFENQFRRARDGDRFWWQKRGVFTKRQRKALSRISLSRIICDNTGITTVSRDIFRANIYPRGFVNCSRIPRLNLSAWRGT
T1 sequence (P05164 49-745): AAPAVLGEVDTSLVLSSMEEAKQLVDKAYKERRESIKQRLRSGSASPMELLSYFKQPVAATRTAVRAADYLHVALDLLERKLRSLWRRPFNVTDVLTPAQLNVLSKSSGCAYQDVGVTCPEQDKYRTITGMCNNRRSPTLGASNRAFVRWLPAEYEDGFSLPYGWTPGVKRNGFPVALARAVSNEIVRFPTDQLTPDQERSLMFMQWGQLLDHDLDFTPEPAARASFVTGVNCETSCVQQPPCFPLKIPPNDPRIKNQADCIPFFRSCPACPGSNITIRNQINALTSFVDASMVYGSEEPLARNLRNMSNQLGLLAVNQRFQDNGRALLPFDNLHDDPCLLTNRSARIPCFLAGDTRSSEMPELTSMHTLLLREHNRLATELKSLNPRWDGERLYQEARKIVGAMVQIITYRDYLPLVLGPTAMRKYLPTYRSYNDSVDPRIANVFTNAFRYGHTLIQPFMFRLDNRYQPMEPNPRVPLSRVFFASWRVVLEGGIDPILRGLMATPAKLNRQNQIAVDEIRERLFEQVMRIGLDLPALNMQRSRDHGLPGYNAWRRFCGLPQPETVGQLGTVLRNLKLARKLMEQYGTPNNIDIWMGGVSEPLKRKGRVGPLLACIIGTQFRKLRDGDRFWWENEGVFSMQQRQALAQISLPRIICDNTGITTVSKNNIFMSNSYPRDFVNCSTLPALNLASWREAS

| SMILES | IC50 [1, 4] | IC50 [2, 5] | IC50 [3] | IC50 [1] | IC50 [2] |
| --- | --- | --- | --- | --- | --- |
| CS(=O)(=O)c1cccc(Cc2cc(N)nc3[nH]nnc23)c1 [Example 13, 7-(3-(methylsulfon-yl)benzyl)-3H-[1,2,3]triazolo [4,5-b]pyridin-5-amine] | – | – | – | 1000 to 10000 nM | 1000 to 10000 nM |
| Nc1cc(Cc2cccc(OC(F)(F)F)c2)c2nn[nH]c2n1 [Example 29, 7-(3-(trifluorometh-oxy)benzyl)-3H-[1,2,3]triazolo [4,5-b]pyridin-5-amine] | 101 to 999 nM | 101 to 999 nM | – | – | – |
| Nc1cc(Cc2cccc(C(=O)c3ccccc3)c2)c2nn[nH]c2n1 [Example 40, (3-((5-amino-3H-[1,2,3]triazolo [4,5-b]pyridin-7-yl)methyl)phenyl)(phenyl) methanone] | 101 to 999 nM | 101 to 999 nM | – | – | – |
| Nc1cc(Cc2cccnc2)c2nn[nH]c2n1 [Example 56, 7-(pyridin-3-ylmethyl)-3H-[1,2,3] triazolo[4,5-b]pyridin-5-amine] | 101 to 999 nM | 101 to 999 nM | – | – | – |
| Nc1cc(Cc2cccc3nn(Cc4ccccc4)cc23)c2nn[nH]c2n1 [Example 66, 7-((2-Benzyl-2H-indazol-4-yl)methyl)-3H-[1,2,3]triazolo[4,5-b]pyridin-5-amine] | 101 to 999 nM | 101 to 999 nM | – | – | – |
| COC(=O)c1cc(Cc2cc(N)nc3[nH]nnc23)ccc1F [Example 50, methyl 5-((5-amino-3H-[1,2,3]triazolo [4,5-b]pyridin-7-yl)methyl)-2-fluorobenzoate] | 101 to 999 nM | 101 to 999 nM | – | – | – |
| Nc1cc(Cc2ccc(Oc3ccccc3)nc2)c2nn[nH]c2n1 [Example 58, 7-((6-phenoxypyridin-3-yl)methyl)-3H-[1,2,3]triazolo [4,5-b]pyridin-5-amine] | 101 to 999 nM | 1000 to 10000 nM | – | – | – |
| COc1cccc(Cc2cc(N)nc3[nH]nnc23)n1 [Example 51, 7-((6-Methoxypyridin-2-yl)methyl)-3H-[1,2,3]triazolo[4,5-b]pyridin-5-amine] | 1000 to 10000 nM | 101 to 999 nM | – | – | – |
| Nc1cc(Cc2ccc(-c3csnn3)cc2)c2nn[nH]c2n1 [Example 41, 7-(4-(1,2,3-thiadiazol-4-yl)benzyl)-3H-[1,2,3]triazolo [4,5-b]pyridin-5-amine] | – | 101 to 999 nM | – | – | – |
| Nc1cc(Cc2ccc(F)cc2F)c2nn[nH]c2n1 [Example 43, 7-(2,4-difluorobenzyl)-3H-[1,2,3] triazolo[4,5-b]pyridin-5-amine] | 101 to 999 nM | 101 to 999 nM | – | – | – |
| Nc1cc(Cc2cccc(C(=O)NCCc3ccccc3)c2)c2nn[nH]c2n1 [Example 47, 3-((5-Amino-3H-[1,2,3]triazolo[4,5-b]pyridin-7-yl)methyl)-N-phenethylbenzamide] | 101 to 999 nM | 101 to 999 nM | – | – | – |
| Nc1cc(Cc2ccc(-n3cccn3)cc2)c2nn[nH]c2n1 [Example 11, 7-(4-(1H-pyrazol-1-yl)benzyl)-3H-[1,2,3]triazolo [4,5-b]pyridin-5-amine] | 101 to 999 nM | 101 to 999 nM | – | – | – |
| COC(=O)c1ccc(Cc2cc(N)nc3[nH]nnc23)c(OC)c1 [Example 10, methyl 4-((5-amino-3H-[1,2,3]triazolo[4,5-b]pyridin-7-yl)methyl)-3-methoxybenzo-ate] | – | 101 to 999 nM | – | – | – |
| Nc1cc(Cc2cccc(C(F)(F)F)c2)c2nn[nH]c2n1 [Example 26, 7-(3-(trifluorometh-yl)benzyl)-3H-[1,2,3]triazolo [4,5-b]pyridin-5-amine] | – | – | – | – | 1000 to 10000 nM |
| Nc1cc(Cc2ccc(F)cc2)c2nn[nH]c2n1 [Example 28, 7-(4-fluorobenzyl)-3H-[1,2,3]triazolo [4,5-b]pyridin-5-amine] | 101 to 999 nM | 101 to 999 nM | – | – | – |

Second part, led by results:

| IC50 [1, 4] | IC50 [2, 5] | IC50 [3] | IC50 [1] | SMILES | IC50 [2] |
| --- | --- | --- | --- | --- | --- |
| 101 to 999 nM | 1 to 100 nM | 19 nM | – | Nc1cc(Cc2cccc3c2ccn3Cc2cccc(F)c2)c2nn[nH]c2n1 [Example 64, 7-((1-(3-Fluorobenzyl)-1H-indol-4-yl)methyl)-3H-[1,2,3]triazolo[4,5-b]pyridin-5-amine] | – |
| 1 to 100 nM | 101 to 999 nM | – | – | Nc1cc(Cc2cccc(-c3cccc(F)c3)c2)c2nn[nH]c2n1 [Example 14, 7-((3′-fluoro-[1,1′-biphenyl]-3-yl)methyl)-3H-[1,2,3]triazolo [4,5-b] pyridin-5-amine] | – |
| 101 to 999 nM | 101 to 999 nM | – | – | Nc1cc(Cc2ccc(-c3ccccc3)cc2)c2nn[nH]c2n1 [Example 37, 7-([1,1′-biphenyl]-4-ylmethyl)-3H-[1,2,3]triazolo [4,5-b]pyridin-5-amine] | – |
| 101 to 999 nM | 101 to 999 nM | – | – | Nc1cc(Cc2ccc(F)c(F)c2)c2nn[nH]c2n1 [Example 34, 7-(3,4-difluorobenzyl)-3H-[1,2,3] triazolo[4,5-b]pyridin-5-amine] | – |
| – | 1 to 100 nM | 52 nM | – | Nc1cc(Cc2cncc(Cl)c2)c2nn[nH]c2n1 [Example 57, 7-((5-chloropyridin-3-yl)methyl)-3H-[1,2,3]triazolo [4,5-b]pyridin-5-amine] | – |
| 1 to 100 nM | 1 to 100 nM | – | – | Nc1cc(Cc2cccc3c2ccn3Cc2cccc(Cc3ccccc3)c2)c2nn[nH]c2n1 [Example 62, 7-((1-(3-Benzylbenzyl)-1H-indol-4-yl)methyl)-3H-[1,2,3]triazolo[4,5-b]pyridin-5-amine] | – |
| 101 to 999 nM | 1 to 100 nM | 34 nM | – | Cc1cc(C)cc(Cc2cc(N)nc3[nH]nnc23)c1 [Example 31, 7-(3,5-dimethylbenzyl)-3H-[1,2,3] triazolo[4,5-b]pyridin-5-amine] | – |
| 1 to 100 nM | 1 to 100 nM | – | – | Nc1cc(Cc2cc(Cl)ccc2F)c2nn[nH]c2n1 [Example 21, 7-(5-chloro-2-fluorobenzyl)-3H-[1,2,3] triazolo[4,5-b]pyridin-5-amine] | – |
| 1 to 100 nM | 1 to 100 nM | – | – | Nc1cc(Cc2cccc3c2cnn3Cc2ccccc2)c2nn[nH]c2n1 [Example 65, 7-((1-Benzyl-1H-indazol-4-yl)methyl)-3H-[1,2,3]triazolo[4,5-b]pyridin-5-amine] | – |
| 1 to 100 nM | 1 to 100 nM | – | – | Nc1cc(Cc2cccc(Cc3ccccc3)c2)c2nn[nH]c2n1 [Example 16, 7-(3-benzylbenzyl)-3H-[1,2,3]triazolo [4,5-b]pyridin-5-amine] | – |
| 101 to 999 nM | 1 to 100 nM | – | – | Nc1cc(Cc2cccc(-c3ccn(Cc4ccccc4)n3)c2)c2nn[nH]c2n1 [Example 48, 7-(3-(1-Benzyl-1H-pyrazol-3-yl)benzyl)-3H-[1,2,3]triazolo[4,5-b]pyridin-5-amine] | – |
| – | 1 to 100 nM | – | – | Nc1cc(Cc2cc(F)ccc2F)c2nn[nH]c2n1 [Example 42, 7-(2,5-difluorobenzyl)-3H-[1,2,3] triazolo[4,5-b]pyridin-5-amine] | – |
| 101 to 999 nM | 1 to 100 nM | – | – | Nc1cc(Cc2cccc(F)c2F)c2nn[nH]c2n1 [Example 44, 7-(2,3-difluorobenzyl)-3H-[1,2,3] triazolo[4,5-b]pyridin-5-amine] | – |
| – | 1 to 100 nM | – | – | Nc1cc(Cc2c(F)cccc2F)c2nn[nH]c2n1 [Example 33, 7-(2,6-difluorobenzyl)-3H-[1,2,3] triazolo[4,5-b]pyridin-5-amine] | – |
| 1 to 100 nM | 1 to 100 nM | – | – | Nc1cc(Cc2cccc3c2ccn3Cc2cccc(OCc3ccccc3)c2)c2nn[nH]c2n1 [Example 63, 7-((1-(3-(Benzyloxy)benzyl)-1H-indol-4-yl)methyl)-3H-[1,2,3]triazolo[4,5-b]pyridin-5-amine] | – |
